Tested on: Schistosoma mansoni
Assay: High throughput screening of compounds against Schistosoma mansoni motility
Type: functional
Set-up: dose or concentration left out as unconfirmed

Point of comparison: `CCSCC(C)NCc1nncn1C1CCCCC1` (configuration not stated), “Percent Effect” value 1.244%. Against it:
- CN(CCN1CCCCCC1)C(=O)c1cc(CN2CCC(O)CC2)on1 — lower, -17.62%
- CC(C)(C)c1ccn(C2(C(=O)O)CCN(c3nccc(N)n3)CC2)n1 — higher, 14.42%
- CC(C)S(=O)(=O)NCC1CCCN(C(=O)c2ccc3c(c2)CCC3)C1 (configuration not stated) — lower, -22.55%
- CC(OCC(F)(F)F)C(=O)N1CCCCC1 (configuration not stated) — lower, -17.04%
- Cc1nccn1-c1cc(CNC(=O)C(C)(C)C)ccn1 — lower, -28.12%
- Cc1nc2n(n1)CC(Nc1cc(C(F)(F)F)nc3ncnn13)CC2 (configuration not stated) — lower, -11.7%
- COC(=O)c1sccc1S(=O)(=O)N1CCC(Oc2ncccc2Cl)CC1 — lower, -59.58%
- CCS(=O)(=O)N1CCC(c2nnc(Cn3cccn3)n2C2CC2)CC1 — lower, -7.484%
- CC1CCN(Cc2cnc(S(=O)(=O)CC3CC3)n2CC2CCCO2)CC1 (configuration not stated) — lower, -34.33%
- O=C(c1cccnc1)N1C[C@@H]2CC[C@H](C1)N(Cc1cccc(Cl)c1F)C2 — higher, 6.232%
- O=C1CCSCC(C(=O)N2CCN(C3CCCCC3)CC2)N1 (configuration not stated) — lower, -48.25%
- CCc1noc(C(C)N(C)CC(=O)Nc2c(C)cccc2C)n1 (configuration not stated) — lower, -71%
- CCc1nc(C2CCCN2CC(=O)Nc2c(C)nn(C)c2C)no1 (configuration not stated) — lower, -35.66%
- CCn1nc(C(C)C)cc1C(=O)NCCCOC — lower, -51.54%
- CCc1nnc2n1CC(CNCc1ccncc1)CC2 (configuration not stated) — lower, -67.25%
- Cn1c(CNc2c(F)cccc2-n2cccn2)cc(=O)n(C)c1=O — lower, -12.04%
- CCn1nc(CC(C)C)cc1C(=O)NCCn1cccc1 — lower, -58.97%
- Cc1nc(C)n(CC2CN(CCc3ccncc3)CCO2)n1 (configuration not stated) — lower, -26.46%
- CCC(C)NC(=O)Nc1ccc(CN2CCOC2=O)cc1 (configuration not stated) — higher, 3.949%
- O=C(c1cn(-c2cc(N3CCOCC3)ncn2)cn1)N1CCSCC1 — lower, -64.76%
- Cc1cc(F)ccc1CNCCn1cccn1 — lower, -28.39%
- Cc1ccc(C(=O)NC(CN2CCCC2=O)c2ccccc2)c(=O)[nH]1 (configuration not stated) — lower, -58.7%
- N#Cc1ccc(OC2CCN(C(=O)c3ccc4c(c3)OCO4)CC2)nc1 — lower, -46.44%
- CN(C)C(=O)N1CCn2nc(CNC(=O)CCC(F)(F)F)cc2C1 — higher, 2%
- Cc1nc(CN2CCC(N(C)Cc3noc(C(C)C)n3)C2)cs1 (configuration not stated) — lower, -19.62%
- CC(OCC(F)(F)F)C(=O)N1CCN(S(C)(=O)=O)CC1 (configuration not stated) — lower, -54.53%
- CS(=O)(=O)CCSc1cccc(C#N)c1 — lower, -35.13%
- CCOc1ncccc1NC(=O)c1cc(C)c(C)s1 — lower, -34.96%
- CC(C)C(=O)NCCNc1nccc(-c2cc(C(=O)O)ccn2)n1 — higher, 19.02%
- Cc1cc(N2CCN(Cc3nccn3C)CC2)cc(C)n1 — lower, -24.56%
- CN(C)CCN(Cc1cccc(C(F)(F)F)c1)C(=O)c1cc[nH]n1 — higher, 19.83%
- O=C(CCc1cc2n(n1)CCCN(C(=O)c1cccnc1)C2)NC1CC1 — higher, 5.877%
- O=C1CN(Cc2nnc(-c3ccc(Br)o3)o2)CCN1 — lower, -20.64%
- Cc1noc(C)c1CN1C(=O)[C@H]2CC[C@@H]1CN(Cc1cccnc1N)C2 — lower, -25.95%
- CCS(=O)(=O)N(C)c1ccc(C(=O)N2CCCC(C)C2)cc1 (configuration not stated) — lower, -22.28%
- CN(CCC(F)(F)F)C(=O)[C@H]1CSCN1C(=O)OC(C)(C)C — lower, -27.39%
- COCC(C)(O)CNC(=O)COc1ccccc1OC (configuration not stated) — lower, -28.83%
- CC(CN1CCOCC1)NCC1CCN(c2cnn(C)c(=O)c2)CC1 (configuration not stated) — higher, 33.93%
- Cc1ccsc1CN(CCN(C)C)Cc1ccccn1 — lower, -19.12%
- COCCN1C(=O)CC(N2CCN(c3ccc(OC)cc3)CC2)C1=O (configuration not stated) — lower, -42.76%
- Cc1cc(NC(=O)CN2CCCC2c2noc(C3CC3)n2)no1 (configuration not stated) — lower, -30.12%
- CC(=O)NCC1CCN(CC2CCOc3ccccc3C2)CC1 (configuration not stated) — lower, -62.7%
- COCC(NC(=O)c1cc[nH]n1)c1cccc(C(F)(F)F)c1 (configuration not stated) — lower, -87.52%
- Cc1nc(C)n(CC2CCCN2CCCc2ccccc2)n1 (configuration not stated) — lower, -9.599%
- Cc1csc(N2CCN(CCc3ccccn3)CC2C)n1 (configuration not stated) — lower, -16.94%
- CC1CCN(CCNC(=O)c2cncnc2C(C)C)CC1 — lower, -17.46%
- CC(C)CNC(=O)NC(=O)CNc1ccccc1SCC(C)C#N (configuration not stated) — lower, -9.977%
- CC(CNC(=O)c1ccc(F)cc1Cl)N1CCCC1 (configuration not stated) — lower, -36.02%
- Cn1c(Cn2cccn2)nnc1C1CCN(Cc2cccnc2N)CC1 — lower, -7.123%
- CN(CCCc1cnn(C)c1)C(=O)C1COc2ccccc2C1 (configuration not stated) — lower, -70.43%
- CSc1ccccc1CN1CCn2nc(CNC(C)=O)cc2C1 — lower, -11.64%
- CN(C)C(C(=O)N1CCC(N2CCSCC2)CC1)c1ccccc1F (configuration not stated) — higher, 10.46%
- CCc1cnc2c(c1NCc1ccncc1)c(=O)n(C)c(=O)n2C — lower, -33.12%
- Cc1ccc(-c2cn[nH]c2C2CCCN(c3nccc(N)n3)C2)cc1 (configuration not stated) — higher, 94.46%
- CN(C)C(=O)c1cccc(NC(=O)N(CCO)Cc2ccsc2)c1 — lower, -21.08%
- CCOCCN1CCN(Cc2nc(C3CC3)no2)CC1CC (configuration not stated) — lower, -35.07%
- COc1ccc(-n2nnc(C(=O)NC(C)C)c2C2CC2)cc1 — lower, 0.8394%
- CCc1nnc2n1CCN(Cc1csc(-c3ccsc3)n1)C2 — lower, -55.89%
- CCc1nnc(CN(C)c2nc(C(C)C)nc3c2cnn3C)o1 — lower, -37.68%
- CCc1ccc(C(=O)Nc2ccc(CC3CC(=O)NC3=O)cc2)cc1 (configuration not stated) — lower, -47.76%
- NC(=O)CCOc1nc(-c2ccccc2Cl)no1 — lower, -31.15%
- CN(C)CCN(Cc1ccc(Cl)cc1)C(=O)c1cc[nH]n1 — higher, 46.97%
- O=C(Cc1cccs1)NC1CCN(c2cccc(F)c2)CC1 — lower, -37.43%
- Cc1cnn(CC2CN(CCc3ccncc3)CCO2)c1 (configuration not stated) — lower, -83.94%
- Cc1ccc(S(=O)(=O)NC(=O)c2cccc3c2OCCO3)c(C)c1 — lower, -13.74%
- Cc1nn(C)c(N2CCOCC2)c1CNC(C)c1cccnc1 (configuration not stated) — lower, -13.95%
- CN(C)S(=O)(=O)N1CCC(Oc2ccc(C#N)cc2)CC1 — higher, 21.82%
- Cn1c(CN2CCN(CC3CC3)CC2)nnc1C1CCC1 — lower, -23.98%
- Cc1ccc(C(=O)NC(C)CN2CCCC2=O)c(=O)[nH]1 (configuration not stated) — lower, -45.23%
- COC(=O)c1sccc1NC(=O)C1CCCN1C(=O)c1ccco1 (configuration not stated) — higher, 1.887%
- Cc1ccn(-c2ccccc2NCc2ncc[nH]2)n1 — lower, -21.01%
- COc1ccc(NC(C)C(=O)N2CCN(Cc3ccccc3)CC2)cn1 (configuration not stated) — lower, -29.98%
- COCCN(Cc1ccc(F)cc1Cl)C(=O)c1ccncc1 — lower, -38.63%
- CC(C)NC(=O)[C@@H]1C[C@H](N)CN1C(=O)c1cc2c([nH]c1=O)CCCC2 — lower, -18.08%
- Cc1nsc(N2CCCN(c3nc(C4CC4)ns3)CC2)n1 — lower, -32.57%
- O=C1CC(c2cccs2)c2snc(C(=O)O)c2N1 (configuration not stated) — higher, 18.04%
- COc1cccc(CNc2c(C)cnc3c2c(=O)n(C)c(=O)n3C)c1 — higher, 5.662%
- CNC(=O)CCNC(=O)c1cccc(Cn2nc(C)cc2C)c1 — lower, -2.451%
- c1csc(-c2nc(CN3CCCC3Cn3cncn3)co2)c1 (configuration not stated) — lower, -94.11%
- C[C@@H]1CN(C2(C(=O)N3CCOCC3)Cc3ccccc3C2)C[C@H](C)O1 — higher, 12.59%
- CS(=O)(=O)NCCNC(=O)C1(c2cccc(Cl)c2)CC1 — higher, 21.58%
- Cc1occc1C(=O)Nc1ccnc(OC2CCOC2)c1 (configuration not stated) — lower, -74.39%
- OCCOc1nc(-c2ccccc2Cl)no1 — lower, -41.46%
- CCC(=O)N1CCc2[nH]cnc2C12CCN(C(=O)CCS(C)(=O)=O)CC2 — lower, -12.74%
- COc1ccc(C2CCCN2C(=O)CCNc2ncccn2)cc1 (configuration not stated) — lower, -36.49%
- Cc1occc1C(=O)N1CCC2(CCC(=O)N(CC(N)=O)C2)CC1 — higher, 13.97%
- O=C(c1cccc(S(=O)(=O)NCCCc2ccco2)c1)N1CCOCC1 — lower, -44.89%
- COC(=O)c1cc(OCC2CCC2)cc(C(=O)N[C@H]2CC[C@H](O)CC2)c1 — lower, -76.62%
- Cc1ncsc1C(=O)N1CCCC(c2noc(C(C)C)n2)C1 (configuration not stated) — lower, -12.34%
- Oc1cc(CCC2CCCCN2)cc(-c2ccncc2)c1 (configuration not stated) — higher, 6.025%
- Cc1csc(CNC(=O)Nc2cc(C(F)(F)F)c[nH]c2=O)n1 — higher, 7.294%
- CN(CC(F)(F)F)C(=O)C1CSCN1C(=O)OC(C)(C)C (configuration not stated) — lower, -9.988%
- O=C1CCSCC(C(=O)N2CCCC2)N1 (configuration not stated) — lower, -27.13%
- C1CCCN(c2nc(C3CC3)ns2)CC1 — lower, -22.51%
- Cc1nc(C)n(CC2CCCN2CC(=O)NCc2ccco2)n1 (configuration not stated) — lower, -29.3%
- CC(=O)N1CCC(C(=O)NCCN2CCCCC2)CC1 — higher, 25.49%
- Cc1ccc(C(=O)O)cc1S(=O)(=O)Nc1nn(-c2ccccc2)cc1C — lower, -27.39%
- COc1ccc(C2CCCCCN2S(=O)(=O)N(C)C)cc1 (configuration not stated) — higher, 18.41%
- COc1cccc(C(=O)N2CCCC(C(=O)CCc3ccccc3)C2)c1 (configuration not stated) — higher, 20.31%
- CS(=O)(=O)c1ccccc1C(=O)NCC1Cc2ccccc2O1 (configuration not stated) — lower, -25.81%
- COc1ccccc1OCC(=O)NCC(O)(c1ccccc1)C1CC1 (configuration not stated) — lower, -13.46%
- C1CC1c1nsc(N2CCN(C3CC3)CC2)n1 — lower, -51.78%
- O=C(Nc1ccc(F)cc1)N1C[C@H]2CC[C@@H]1CN(Cc1cccnc1)C2 — lower, -3.001%
- CC(CN1CCC2(CC1)c1nc[nH]c1CCN2S(C)(=O)=O)C(F)(F)F (configuration not stated) — higher, 2.483%
- COc1ccccc1S(=O)(=O)N1CCC(Oc2cccnn2)CC1 — lower, -19.77%
- Cn1cnnc1S(=O)(=O)C1CCN(S(=O)(=O)C2CC2)CC1 — lower, -25.74%
- CSc1ncc(C(=O)N2C[C@H]3CC[C@@H]2CN(Cc2ccccc2)C3)cn1 — lower, -35.01%
- COc1ccc(CNC(=O)NC2CCC(O)CC2)c(C(F)(F)F)c1 (configuration not stated) — lower, -1.236%
- Cc1csc(N2CCN(Cc3ccccn3)CC2C)n1 (configuration not stated) — lower, -63.75%
- COc1ccc(NC(C)C(=O)N2CCN(c3ncccn3)CC2)cn1 (configuration not stated) — lower, -56.07%
- CCSc1cc(C(=O)NCCC(=O)Nc2ccccn2)ccn1 — lower, -76.69%
